Laboratory results: US20260014226A1, “STABLE READY TO DILUTE COMPOSITION OF CARFILZOMIB” (Kashiv BioSciences, LLC, priority 2021, published 2026)

System: diluted blood (red blood cell)
Format: cell-based, Human
Experimental: The term “hemolytic potential’ refers to ability of fluid to degrade the red blood cell and releases hemoglobin. The hemolytic potential is measured as release of hemoglobin from blood cells. • Blank, Negative and Positive Control • Blank: Diluted Blood • Negative control (Vehicle): 0.9% Sodium chloride (Normal Saline) is isotonic with Human blood. • Positive control: 5% Saponin was used as positive control Required quantity of blood was collected into K2 EDTA vials and immediately mixed well, this was used for the study within 24 hours of blood collection. The blood was maintained at ambient room temperature before use. Hemoglobin was determined using Advia 2120i heamtology system for this purpose, concentrations will be determined twice, before and after dilution. A separate aliquot of blood was centrifuged, and plasma was analyzed for hemoglobin to ensure blood was not hemolyzed before the study. Hemoglobin standard solutions was prepared using human hemoglobin. Initially, a stock solution of 180 mg hemoglobin/mL was prepared in Drabkin's reagent by dissolving the hemoglobin powder in Drabkin's reagent. The working standards of at least 6 different concentrations was prepared in Drabkin's reagent and was read in plate reader at 540 nm wavelength. […]

## Saponin [Positive control]
  % Hemolysis: 100.00%
